From PubChem BioAssay AID248 (DTP/NCI, 2004)
“And” between values parts separate entries of the source, which are not always exact repeats. Equal entries are not always repeated. Inconclusive results and toxic doses are left out.

Tested on: L1210 leukemia ip in BDF1 mice, survival T/C
Test: NCI In Vivo Anticancer Drug Screen. Data for tumor model L1210 Leukemia (intraperitoneal) in B6D2F1 (BDF1) mice
Details: higher = longer survival
Outline: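 Survival endpoint. Drug-treated group vs vehicle group, expressed as T divided by C. Tumor passaged by transplantation.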

[1] = endpoint: mean survival time, dose: 100.0 mg/kg/injection, schedule: Q04DX003 (ip), vehicle: saline with Tween-80
[2] = endpoint: mean survival time, dose: 200.0 mg/kg/injection, schedule: Q04DX003 (ip), vehicle: saline with Tween-80
[3] = endpoint: mean survival time, dose: 400.0 mg/kg/injection, schedule: Q04DX003 (ip), vehicle: saline with Tween-80

SMILES: Oc1cc(CN(CCCl)CCCl)c(O)cc1CN(CCCl)CCCl
- T/C (endpoint: mean survival time, dose: 0.06 mg/kg/injection, schedule: Q#A X Z (ip), vehicle: saline): 118 % of control
- T/C (endpoint: mean survival time, dose: 0.13 mg/kg/injection, schedule: Q01DX Z (ip), vehicle: saline): 120 % of control
- T/C (endpoint: mean survival time, dose: 0.25 mg/kg/injection, schedule: Q01DX001 (ip), vehicle: saline): 111 % of control
- T/C (endpoint: mean survival time, dose: 0.25 mg/kg/injection, schedule: Q01DX Z (ip), vehicle: saline): 122 % of control
- T/C (endpoint: mean survival time, dose: 0.25 mg/kg/injection, schedule: Q07DX003 (ip), vehicle: saline): 158 % of control
- T/C (endpoint: mean survival time, dose: 0.5 mg/kg/injection, schedule: Q01DX001 (ip), vehicle: saline): 104 % of control
- T/C (endpoint: mean survival time, dose: 0.5 mg/kg/injection, schedule: Q01DX010 (ip), vehicle: saline): 121 % of control
- T/C (endpoint: mean survival time, dose: 0.5 mg/kg/injection, schedule: Q07DX003 (ip), vehicle: saline): 104 % of control
- T/C (endpoint: mean survival time, dose: 0.5 mg/kg/injection, schedule: Q#A X Z (ip), vehicle: saline): 122 % of control
- T/C (endpoint: mean survival time, dose: 1.0 mg/kg/injection, schedule: Q01DX001 (ip), vehicle: saline): 107 % of control and 113 % of control
- T/C (endpoint: mean survival time, dose: 1.25 mg/kg/injection, schedule: Q01DX009 (ip), vehicle: saline): 107 % of control and 118 % of control
- T/C (endpoint: mean survival time, dose: 2.0 mg/kg/injection, schedule: Q01DX001 (ip), vehicle: saline): 111 % of control and 120 % of control
- T/C (endpoint: mean survival time, dose: 2.0 mg/kg/injection, schedule: Q01DX006 (iv), vehicle: saline): 114 % of control
- T/C (endpoint: mean survival time, dose: 2.0 mg/kg/injection, schedule: Q01DX Z (im), vehicle: saline): 108 % of control
- T/C (endpoint: mean survival time, dose: 2.0 mg/kg/injection, schedule: Q01DX Z (sc), vehicle: saline): 108 % of control
- T/C (endpoint: mean survival time, dose: 2.5 mg/kg/injection, schedule: Q01DX009 (ip), vehicle: saline): 119 % of control
- T/C (endpoint: mean survival time, dose: 3.0 mg/kg/injection, schedule: Q03DX006 (ip), vehicle: saline): 106 % of control
- T/C (endpoint: mean survival time, dose: 4.0 mg/kg/injection, schedule: Q01DX001 (ip), vehicle: saline): 108 % of control
- T/C (endpoint: mean survival time, dose: 4.0 mg/kg/injection, schedule: Q01DX006 (iv), vehicle: saline): 117 % of control
- T/C (endpoint: mean survival time, dose: 4.0 mg/kg/injection, schedule: Q01DX010 (ip), vehicle: saline): 119 % of control
- T/C (endpoint: mean survival time, dose: 4.0 mg/kg/injection, schedule: Q01DX Z (im), vehicle: saline): 120 % of control
- T/C (endpoint: mean survival time, dose: 4.0 mg/kg/injection, schedule: Q01DX Z (sc), vehicle: saline): 114 % of control
- T/C (endpoint: mean survival time, dose: 5.0 mg/kg/injection, schedule: Q01DX009 (ip), vehicle: saline): 122 % of control
- T/C (endpoint: mean survival time, dose: 5.0 mg/kg/injection, schedule: Q01DX010 (ip), vehicle: saline): 117 % of control
- T/C (endpoint: mean survival time, dose: 8.0 mg/kg/injection, schedule: Q01DX001 (ip), vehicle: saline): 104 % of control and 113 % of control
- T/C (endpoint: mean survival time, dose: 8.0 mg/kg/injection, schedule: Q01DX006 (iv), vehicle: saline): 123 % of control
- T/C (endpoint: mean survival time, dose: 8.0 mg/kg/injection, schedule: Q01DX Z (im), vehicle: saline): 108 % of control
- T/C (endpoint: mean survival time, dose: 8.0 mg/kg/injection, schedule: Q01DX Z (oral), vehicle: saline): 117 % of control
- T/C (endpoint: mean survival time, dose: 8.0 mg/kg/injection, schedule: Q01DX Z (sc), vehicle: saline): 111 % of control
- T/C (endpoint: mean survival time, dose: 8.0 mg/kg/injection, schedule: Q#A X Z (ip), vehicle: saline): 102 % of control
- T/C (endpoint: mean survival time, dose: 10.0 mg/kg/injection, schedule: Q01DX009 (ip), vehicle: saline): 93 % of control and 96 % of control
- T/C (endpoint: mean survival time, dose: 10.0 mg/kg/injection, schedule: Q01DX010 (ip), vehicle: saline): 89 % of control
- T/C (endpoint: mean survival time, dose: 16.0 mg/kg/injection, schedule: Q01DX001 (ip), vehicle: saline): 122 % of control and 124 % of control
- T/C (endpoint: mean survival time, dose: 16.0 mg/kg/injection, schedule: Q01DX006 (iv), vehicle: saline): 123 % of control
- T/C (endpoint: mean survival time, dose: 16.0 mg/kg/injection, schedule: Q01DX Z (im), vehicle: saline): 117 % of control
- T/C (endpoint: mean survival time, dose: 16.0 mg/kg/injection, schedule: Q01DX Z (ip), vehicle: saline): 103 % of control
- T/C (endpoint: mean survival time, dose: 16.0 mg/kg/injection, schedule: Q01DX Z (oral), vehicle: saline): 109 % of control
- T/C (endpoint: mean survival time, dose: 16.0 mg/kg/injection, schedule: Q01DX Z (sc), vehicle: saline): 120 % of control
- T/C (endpoint: mean survival time, dose: 16.0 mg/kg/injection, schedule: Q07DX003 (ip), vehicle: saline): 114 % of control
- T/C (endpoint: mean survival time, dose: 24.0 mg/kg/injection, schedule: Q03DX006 (ip), vehicle: saline): 124 % of control
- T/C (endpoint: mean survival time, dose: 32.0 mg/kg/injection, schedule: Q01DX001 (ip), vehicle: saline): 120 % of control
- T/C (endpoint: mean survival time, dose: 32.0 mg/kg/injection, schedule: Q01DX Z (im), vehicle: saline): 93 % of control
- T/C (endpoint: mean survival time, dose: 32.0 mg/kg/injection, schedule: Q01DX Z (oral), vehicle: saline): 111 % of control
- T/C (endpoint: mean survival time, dose: 32.0 mg/kg/injection, schedule: Q01DX Z (sc), vehicle: saline): 110 % of control
- T/C (endpoint: mean survival time, dose: 48.0 mg/kg/injection, schedule: Q03DX006 (ip), vehicle: saline): 104 % of control
- T/C (endpoint: mean survival time, dose: 64.0 mg/kg/injection, schedule: Q01DX001 (ip), vehicle: saline): 108 % of control and 110 % of control
- T/C (endpoint: mean survival time, dose: 64.0 mg/kg/injection, schedule: Q01DX Z (im), vehicle: saline): 95 % of control
- T/C (endpoint: mean survival time, dose: 64.0 mg/kg/injection, schedule: Q01DX Z (oral), vehicle: saline): 105 % of control
- T/C (endpoint: mean survival time, dose: 64.0 mg/kg/injection, schedule: Q01DX Z (sc), vehicle: saline): 87 % of control
- T/C (endpoint: mean survival time, dose: 64.0 mg/kg/injection, schedule: Q07DX003 (ip), vehicle: saline): 106 % of control
- T/C (endpoint: mean survival time, dose: 128.0 mg/kg/injection, schedule: Q01DX001 (ip), vehicle: saline): 108 % of control and 114 % of control
- T/C (endpoint: mean survival time, dose: 256.0 mg/kg/injection, schedule: Q01DX001 (ip), vehicle: saline): 119 % of control
- T/C (endpoint: mean survival time, dose: 16.0 micrograms/kg/injection, schedule: Q03DX003 (ip), vehicle: saline): 104 % of control
- T/C (endpoint: mean survival time, dose: 32.0 micrograms/kg/injection, schedule: Q03DX003 (ip), vehicle: saline): 98 % of control
- T/C (endpoint: mean survival time, dose: 37.5 micrograms/kg/injection, schedule: Q07DX002 (ip), vehicle: saline): 102 % of control
- T/C (endpoint: mean survival time, dose: 62.5 micrograms/kg/injection, schedule: Q03DX003 (ip), vehicle: saline): 107 % of control
- T/C (endpoint: mean survival time, dose: 75.0 micrograms/kg/injection, schedule: Q07DX002 (ip), vehicle: saline): 101 % of control
- T/C (endpoint: mean survival time, dose: 125.0 micrograms/kg/injection, schedule: Q03DX003 (ip), vehicle: saline): 102 % of control
- T/C (endpoint: mean survival time, dose: 150.0 micrograms/kg/injection, schedule: Q07DX002 (ip), vehicle: saline): 104 % of control
- T/C (endpoint: mean survival time, dose: 300.0 micrograms/kg/injection, schedule: Q07DX002 (ip), vehicle: saline): 102 % of control
- T/C (endpoint: median survival time, dose: 1.25 mg/kg/injection, schedule: Q01DX009 (ip), vehicle: saline): 157 % of control
- T/C (endpoint: median survival time, dose: 5.0 mg/kg/injection, schedule: Q01DX009 (ip), vehicle: saline): 122 % of control
- T/C (endpoint: median survival time, dose: 10.0 mg/kg/injection, schedule: Q01DX009 (ip), vehicle: saline): 105 % of control and 114 % of control

SMILES: CN(C)c1ccc(/C=C/c2cnccn2)cc1
- T/C (endpoint: mean survival time, dose: 25.0 mg/kg/injection, schedule: Q01DX009 (ip), vehicle: Klucel (hydroxypropylcellulose) (HPC)): 107 % of control
- T/C (endpoint: mean survival time, dose: 100.0 mg/kg/injection, schedule: Q04DX003 (ip), vehicle: Klucel (hydroxypropylcellulose) (HPC)): 94 % of control
- T/C (endpoint: mean survival time, dose: 200.0 mg/kg/injection, schedule: Q04DX003 (ip), vehicle: Klucel (hydroxypropylcellulose) (HPC)): 93 % of control

SMILES: O=Cc1ccc[n+](Cc2ccccc2)c1
- T/C (endpoint: mean survival time, dose: 75.0 mg/kg/injection, schedule: Q01DX001 (ip), vehicle: saline): 98 % of control
- T/C (endpoint: mean survival time, dose: 150.0 mg/kg/injection, schedule: Q01DX001 (ip), vehicle: saline): 102 % of control
- T/C (endpoint: mean survival time, dose: 300.0 mg/kg/injection, schedule: Q01DX001 (ip), vehicle: saline): 102 % of control

SMILES: CC(C)=CCCC(C)C/C=N\O (stereo not given)
- T/C (endpoint: mean survival time, dose: 100.0 mg/kg/injection, schedule: Q01DX009 (ip), vehicle: saline with Tween-80): 101 % of control
- T/C [1]: 100 % of control
- T/C (endpoint: mean survival time, dose: 200.0 mg/kg/injection, schedule: Q01DX009 (ip), vehicle: saline with Tween-80): 104 % of control
- T/C [2]: 103 % of control
- T/C [3]: 106 % of control

SMILES: CCSC(C)C
- T/C (endpoint: mean survival time, dose: 100.0 mg/kg/injection, schedule: Q04DX003 (ip), vehicle: saline): 106 % of control
- T/C (endpoint: mean survival time, dose: 200.0 mg/kg/injection, schedule: Q04DX003 (ip), vehicle: saline): 107 % of control
- T/C (endpoint: mean survival time, dose: 400.0 mg/kg/injection, schedule: Q04DX003 (ip), vehicle: saline): 102 % of control

SMILES: COC(=O)C(N)CO (stereo not given)
- T/C [1]: 105 % of control
- T/C [2]: 105 % of control
- T/C [3]: 91 % of control
